Read-outs that look alike come from different tables or passages of the source.
How the values were obtained:
[1] = 2.8 μg in 2 minutes, ultrasonic nebuliser; cited from earlier work
[2] = system: patients with pulmonary arterial hypertension; experiment: Clinical pilot study of safety and tolerability of rapidly inhaled nebulised iloprost (Example 3); format: in vivo, human
Description: A clinical pilot study to evaluate the safety and tolerability of nebulised iloprost administered by inhalation according to the invention was conducted with 4 patients. Eligible were male and female patients with pulmonary arterial hypertension in the age from 18 to 70 years having a mean pulmonary arterial blood pressure (PAP) higher than 25 mm Hg, a pulmonary vascular resistance (PVR) higher than 240 dyn*s*cm^−5, a central venous pressure (CVP) higher than 3 mm Hg, and a pulmonary capillary wedge pressure (PCWP) lower than 12 mm Hg. Excluded were patients with a contraindication for cardiac catheterisation (such as coagulopathy, bleeding disorder, acute infection, severe cardiac dysrhythmia), pregnancy, systemic systolic blood pressure below 110 mm Hg, highly impaired ventricular function with cardiac index below 1.8 L/min*m^2, and known lack of pulmonary vascular reactivity. Patients were monitored by ECG, pulse oxymetry, and non-invasive blood pressure measurement. An intracardiac catheter was introduced into the distal pulmonary artery to measure PAP, CVP, PCWP, and cardiac output. Also measured were the heart rate, systemic arterial pressure (SAP), systemic vascular resistance (SVR), central arterial and venous blood gases. After the initial determination of all parameters the reactivity of the pulmonary vasculature to oxygen (2 to 4 L/min) and nitric oxide (20 ppm) was tested. Subsequently, patients inhaled a single dose of 2.5 μg of nebulised iloprost in two consecutive breaths, using the same inhalation system and iloprost composition as described in Example 1. Haemodynamics parameters and clinical condition of the patients were assessed before and up to 30 minutes after inhalation. In the absence of adverse effects, a second inhalation maneuver with 4 consecutive breaths corresponding to a dose 5 μg iloprost was performed, again followed by an observation period of at least 30 minutes.

[3] = cited from earlier work
[4] = system: patients suffering from pulmonary hypertension (PH); experiment: Iloprost inhalation in six further patients (Example 4); format: in vivo, human; conditions: rapid inhalation as in Example 3
Description: Six further patients suffering from pulmonary hypertension (PH) were treated with iloprost inhalation as in Example 3.

[5] = 2.5 μg and 5 μg rapid inhalation

## CC#CCC(C)[C@H](O)/C=C/[C@@H]1[C@H]2C/C(=C/CCCC(=O)O)C[C@H]2C[C@H]1O (stereo partly drawn) [Iloprost, 5-{(E)-(1S,5S,6R,7R)-7-hydroxy-6[(E)-(3S,4RS)-3-hydroxy-4-methyl-1-octen-6-inyl]-bi-cyclo[3.3.0]octan-3-ylidene}pentanoic acid]
[1]
  systemic effects of rapid inhalation (drop in blood pressure, decrease in systemic vascular resistance, flush, jaw pain): adverse systemic effects
[2]; [5]
  systemic side effects (SAP and SVR changes) versus slow inhalation of iloprost: similar
  therapeutic pulmonary vascular effects (PAP and PVR changes) versus slow inhalation of iloprost: comparable to those observed after conventional iloprost treatment
[2]; 2.5 μg in two breaths, then 5 μg in 4 breaths, inhaled, 4 patients
  tolerability of the treatment: all patients tolerated the treatment well
[3]; aqueous buffer pH 9
  solubility: sparingly soluble
[3]
  aqueous solubility: rather poor
[3]; distilled water and aqueous buffer at pH 3 and pH 5
  solubility: very slightly soluble
[3]; methanol, ethanol, ethyl acetate, acetone and aqueous buffer at pH 7
  solubility: soluble
[4]
  adverse effects: no adverse effects were observed other than the SAP and SVR changes which were mild
[4]; PAH, iPAH, portopulmonary, CTEPH
  pulmonary vascular effects: very comparable to those found in Example 3

Reference: US9486427B2, “Administration of aerosolised iloprost” (VECTURA GMBH, priority 2012, dated 2016)
